# Measurements taken from publication PMC7459591 (Marine Drugs, 2020).
# Experiments:
# human Kv1.5 channel = assay type: cell-based
# human Kv1.4 channel = assay type: cell-based
smiles,measurement,setting,value
"CSCC[C@H](NC(=O)[C@@H]1CCCN1C(=O)CNC(=O)[C@H](CO)NC(=O)[C@@H](NC(=O)[C@H](C)N)[C@@H](C)O)C(=O)NCC(=O)N[C@@H](Cc1c[nH]c2ccccc12)C(=O)N[C@@H](CC(C)C)C(=O)N1CCC[C@H]1C(=O)N[C@H](C(=O)N[C@@H](Cc1ccccc1)C(=O)N[C@@H](Cc1ccc(O)cc1)C(=O)N[C@@H](CCCNC(=N)N)C(=O)N[C@@H](Cc1ccccc1)C(N)=O)C(C)C [CNF-Sr3, Conorfamide-Sr3]","Decrease of current, Kv1.5",human Kv1.5 channel,less than 5%
same,"Decrease of current, Kv1.4",human Kv1.4 channel,less than 5%
